Laboratory results from patent US20240307349A1, “METHODS FOR THE PREPARATION AND DOSE REGIMENS FOR USE OF SSTR4 AGONISTS AND SALTS THEREOF” (priority 2023, published 2024).
Read-outs that look alike come from different tables or passages of the source.

Assays:
Assay type in all cases: in vivo, human
[1] = Phase 1 study LXBB, single-dose pharmacokinetics in healthy subjects
Protocol: A total of 116 healthy subjects received at least one dose of Example 5 in phase 1 studies LXBB and LXBA.
The single-dose pharmacokinetics (PK) of Example 5 were evaluated at a dose range of from 20 to 400 mg.
(§1) Phase 1 Study LXBB was a first-in-human single-ascending dose/multiple-ascending dose (SAD/MAD) study in 89 healthy subjects (TABLE 1). […] One subject was discontinued due to the nondrug-related AE of pyrexia. In the SAD study, 1 subject each reported AEs of temporomandibular joint syndrome and tension headache. In the food effect study, 1 subject reported dry eye and nausea. In the Younger Group 10-day multiple-dose exposure study, the most commonly reported AEs were headache (2 subjects), diarrhea (2 subjects), nausea, rhinitis, and orthostatic hypotension (1 subject each). In the Elderly Group 10-day multiple-dose exposure study, the most commonly reported AEs were headache (5 subjects), pain in extremity (1 subject), vessel puncture site bruise (1 subject), dizziness (1 subject), and orthostatic hypotension (1 subject).

[2] = Phase 1 study LXBA, multiple-dose steady-state plasma PK in healthy subjects; settings: for RA (accumulation ratio based on AUC(0-τ)) / AUC: tau = 12 hours; for Cmax / AUC(0-t) / AUC: human, in vivo, steady state; for Cmax: n = 6, geometric mean; for AUC(0-t): = 2 × AUC(0-τ), read-out: AUC(0-24); for AUC: geometric mean, read-out: AUC(0-τ)
Protocol: The multiple-dose PK of Example 5 were evaluated at doses of 200 mg, 400 mg, and 600 mg, twice daily. The median time to tmax ranged from 1 to 3 hours post dose.
(§2) Study LXBA is a completed study and consisted of 2 parts, Part A and Part B (TABLE 1). Part A of the study had 18 healthy subjects in 3 dosing cohorts, and Part B had 9 healthy subjects exposed to Example 5. […] In Part A, all treatment-emergent adverse events (TEAEs) were mild in severity except for 1 moderate event of presyncope. Constipation and insomnia (2 events each) were the only TEAEs reported in >1 subject. In Part B, the reported TEAEs were dysgeusia, nausea, and vomiting, which were all mild in severity.

healthy subjects [3] = test: Phase 1 study LXBB (SAD/MAD), safety and tolerability in healthy subjects
Description: (§3) The safety and tolerability of Example 5, were initially based on the 2 completed Phase 1 studies (LXBB and LXBA) and later confirmed with 3 completed Phase 2 studies (OA03, BP03, and NP03, as disclosed below).
as §1
The mean PR interval increase from baseline was 13 msec in subjects receiving single 400-mg dose (SAD); the highest PR interval change from baseline in an individual subject was 45 msec (after the 300-mg dose in MAD).

healthy subjects [4] = test: Phase 1 study LXBA, safety and tolerability in healthy subjects
Description: as §3, §2

participants with CLBP = test: H0P-MC-BP03 Phase 2 placebo-controlled trial, chronic low back pain
Description: The purpose of this study was to test whether Example 5 is efficacious in relieving chronic low back pain (CLBP). Data will be collected to assess the safety and tolerability of Example 5 in this study population, which was previously discussed. Pharmacokinetic (PK) properties and pharmacodynamic (PD) effects were also be explored. The totality of data from this proof-of-concept study will assess the benefits and risks associated with Example 5.
BP03 was an 8-week, Phase 2, randomized, double-blind, placebo-controlled study that will compare Example 5 versus placebo in participants with CLBP. Participants received either Example 5 or placebo. Based on tolerability, participants took up to a maximum of 3 capsules orally (each capsule is 200 mg), twice daily (BID), approximately every 12 hours, for a total dose of 600 mg.
The primary clinical question of interest was, “What is the treatment difference between Example 5 and placebo assessed using mean change from baseline to endpoint (Week 8) for average pain intensity (API) as measured by the numeric rating scale (NRS) in participants with CLBP regardless of initiation of rescue medication or other allowed concomitant medication and assuming that they would have continued initially randomized treatment condition?”

Cc1cccnc1OCC(C)(C)NC(=O)[C@H]1[C@@H]2CNC[C@@H]21.O=C(O)C(O)C(O)C(=O)O [Example 5, (1R,5S,6r)-N-(2-Methyl-1-((3-methylpyridin-2-yl)oxy)propan-2-yl)-3-azabicyclo[3.1.0]hexane-6-carboxamide L-tartrate sesquihydrate]
Tmax ([1]; human, in vivo): 2 to 3 h | CL renal ([1]; human, in vivo, single dose, 20 to 400 mg, read-out: Renal clearance (converted)): ~167 mL/min | half-life ([1]; human, in vivo, single dose, 20 to 400 mg, read-out: mean terminal half-life (t1/2)): 11 to 13 h | dose dependence of plasma concentrations ([1]; single dose, 20 to 400 mg): generally increased in a dose-proportional manner | inter-subject variability coefficient of variation of plasma concentrations ([1]; single dose, 20 to 400 mg): < 25% | RA (accumulation ratio based on AUC(0-τ)) ([2]; 200 mg BID): 1.49 | RA (accumulation ratio based on AUC(0-τ)) ([2]; 400 mg BID): 1.81 | RA (accumulation ratio based on AUC(0-τ)) ([2]; 600 mg BID): 1.64 | Cmax ([2]; 200 mg BID (400 mg)): 1620 ng/mL | AUC(0-t) ([2]; 200 mg BID): 23000 ng·h/mL | AUC ([2]; 200 mg BID): 11500 ng·h/mL | Cmax ([2]; 400 mg BID (800 mg)): 3240 ng/mL | AUC(0-t) ([2]; 400 mg BID): 51000 ng·h/mL | AUC ([2]; 400 mg BID): 25800 ng·h/mL | Cmax ([2]; 600 mg BID (1200 mg)): 5210 ng/mL | AUC(0-t) ([2]; 600 mg BID): 77400 ng·h/mL | AUC ([2]; 600 mg BID): 38700 ng·h/mL | steady-state Cmax and AUC0-24 inter-subject coefficient of variations ([2]; multiple dose, 200 mg, 400 mg and 600 mg twice daily): < 25% | deaths or serious adverse events (SAEs) (healthy subjects [3]; SAD and MAD study): No deaths or serious adverse events (SAEs) were reported | severity of adverse events (AEs) (healthy subjects [3]; SAD and MAD study): mild or moderate in severity | tolerability (healthy subjects [3]; SAD and MAD study, 89 healthy subjects): well tolerated | highest PR interval change from baseline in an individual subject (healthy subjects [3]; after the 300-mg dose in MAD): 45 ms | changes in chemistry, hematology, or coagulation parameters (healthy subjects [3]; human, in vivo): no clinically significant changes | mean PR interval increase from baseline (healthy subjects [3]; single 400-mg dose (SAD)): 13 ms | tolerability (healthy subjects [4]; Part A 18 and Part B 9 healthy subjects): generally well tolerated | deaths, SAEs, or discontinuations due to AEs (healthy subjects [4]; human, in vivo): No deaths, SAEs, or discontinuations due to AEs have been reported | severity of AEs (healthy subjects [4]; human, in vivo): majority of AEs were of mild severity | Mean change from baseline assessment to endpoint for API as measured using the NRS (participants with CLBP; 8 weeks after initial treatment administration, up to 600 mg Q12H, n = 102): −1.7 | primary objective: efficacy versus placebo, API by weekly average of NRS (participants with CLBP; Week 8, CLBP): did not meet the prespecified threshold
